# Assay results from patent EP4592274A1, “RADIOLABELED TYROSINE DERIVATIVE AND APPLICATION THEREOF” (OSAKA UNIVERSITY, priority 2022, dated 2024).
# Columns and labels:
# [1] = tested on: human pancreatic cancer cell line, PANC1; assay: Measurement of accumulated amounts of 211At-labeled compounds in tumors of PANC1 transplanted mice (Test Example 5); type: in vivo; details: 0.1 MBq per mouse via tail vein
# Experimental: Radiation doses before and after the administration were measured, and a difference between them was defined as an injected dose (ID). Ten minutes and one hour after administration, the mice were anesthetized by isoflurane inhalation, the tumors were isolated by autopsy in chronological order, and their radiation doses and weights were measured using a gamma counter (2480 Wizard^2, PerkinElmer) and a semimicro scale (Shimadzu Corporation, readability 10 µg), respectively. For comparison between accumulated amounts, accumulated amounts per unit amount (% ID/g) were calculated.
# [2] = Thin-layer chromatography (TLC) analysis of decomposition after production; type: physicochemical; details: 24 hours after purification; in sodium ascorbate aqueous solution (final concentration 1%)
# Experimental: The crude product solution (1 µL) was analyzed by thin-layer chromatography (TLC). The sample was spotted on a thin-layer plate (silica gel 60F254), and a mixed solvent of acetonitrile/water (2/1) was used as a developing solvent. The thin-layer plate was exposed to an imaging plate (BAS IP MS 2025E, GE Healthcare) for about 15 min, and then analyzed by a bioimage analyzer (Tyhoon™ FLA-7000, Cytiva). The results are shown in Fig.2. ^211At-AAMT-OMe in the crude product solution was detected at Rf 0.80, and the radiochemical yield (RCY) was 81.3%.
# Before purification, immediately after production, 3 hours after production, and 24 hours after production, ^211At-AAMT-OMe was analyzed by thin-layer chromatography (TLC) in the same manner as described above.
# 24 hours after production, (R)-^211At-AAMT-OMe was analyzed by thin-layer chromatography (TLC) in the same manner as described above.
# 24 hours after production, ^211At-AAMT-OEt was analyzed by thin-layer chromatography (TLC) in the same manner as described above.
# 24 hours after production, ^211At-AAMT-OPr was analyzed by thin-layer chromatography (TLC) in the same manner as described above.
# 24 hours after production, ^211At-AAMPhe-OMe was analyzed by thin-layer chromatography (TLC) in the same manner as described above.
# PANC1 = assay: Cellular uptake test (using PANC1); type: cell-based, human; details: compared to 211At-AAMT; for uptake speed: PANC1 cells
# Experimental: • Cells to be used: PANC1 • Culture medium to be used: D-MEM (containing 10% FBS, 1% P/S)
# Two days before a test day, a cell suspension was prepared in such a manner that the concentration of predetermined cells was 1 x 10^5 cells/mL in the same manner as in Test Example 1. The cell suspension was seeded in a 24-well multiculture plate at a volume of 0.5 mL per well. On the day of the test, cultures were confirmed to be subconfluent (which refers to a state where 70-80% of the well is covered in density). The cells were washed twice with warmed PBS(-) Buffer (166-23555, FUJIFILM Wako Pure Chemical Corporation), the culture medium was replaced with HBSS(-) Buffer (085-09355, FUJIFILM Wako Pure Chemical Corporation), and the plate was left to stand in an incubator (MINIcell-35, WakenBtech Co., Ltd) until an RI addition test.
# ^211At-AAMT-OMe, ^211At-AAMT-OEt, ^211At-AAMT-OPr, or ^211At-AAMT was added to the prepared cells at 10 µL/well. BCH (LAT1 inhibitor, 20 mM) or unlabeled AMT (α-methyl tyrosine, […]) was previously (15 minutes before) added (10 µg/mL). The cells were cultured (CO2 5%, 37°C), and after 30 minutes, the liquid was removed by suction using an aspirator. The cells were washed twice with PBS(-). The cells were lysed by adding 0.1N NaOH to obtain a lysate, and the radioactivity of the lysate was measured using a γ counter. After the radioactivity measurement, the lysate was loaded into a 96-well plate at a volume of 10 µL per well, the protein amount was measured by the BCA method, and the number of cells was corrected based on the protein amount. Absorbance was measured by MultiScanFC (Thermo Fisher). The uptake level of ^211At-AAMT-OMe, ^211At-AAMT-OEt, ^211-At-AAMT-OPr, or ^211At-AAMT into the cells (number of radioactivity counts/protein amount) was calculated.
# [3] = tested on: CDDP-resistant A549 (A549 CDDP-r); assay: Cell viability of CDDP-resistant A549 in the presence of CDDP (Test Example 7); type: cell-based, human; details: A549 CDDP-r at 100 µg/mL CDDP
# Experimental: Cisplatin (CDDP) was added to a human lung cancer cell line, A549 at an initial concentration of 1 µg/mL. After 3 days, dead cells were removed, and CDDP was again added. Cells that grew like A549 even in the presence of CDDP were isolated and maintained for 3 months while gradually increasing the concentration of CDDP in a culture medium.
# [4] = tested on: gemcitabine-resistant human pancreatic cancer cell line, PANC1 (PANC1 Gem-r); assay: Cell viability of gemcitabine-resistant PANC1 in the presence of gemcitabine (Test Example 11); type: cell-based; details: PANC1 Gem-r at 30 µg/mL gemcitabine
# Experimental: Gemcitabine (Gem) was added to a human pancreatic cancer cell line, PANC1 at an initial concentration of 100 ng/mL. After 3 days, dead cells were removed, and gemcitabine was again added. Cells that grew like a human pancreatic cancer cell line, PANC1 even in the presence of gemcitabine were isolated and maintained for 3 months while gradually increasing the concentration of gemcitabine in a culture medium.
# [5] = tested on: Gem-resistant PANC1 (PANC1 Gem-r); details: mouse, in vivo
# Experimental: (§1) Thirty days after administration, the mice were euthanized and tumor masses were isolated. After fat tissue and the like were trimmed off, the wet weights of the isolated tumor masses were measured to make a histogram.
# [6] = tested on: CDDP-resistant A549 (A549 CDDP-r); details: 30 days after administration, 0.5 MBq per mouse, compared with 211At-AAMT
# Experimental: as §1
# A549 = assay: Therapeutic test on mice subcutaneously transplanted with A549 (Test Example 9); type: in vivo; details: A549, 30 days after administration, 0.5 MBq per mouse; compared with 211At-AAMT
# Experimental: The mice were observed over time until engraftment of tumors was confirmed (50 to 100 mm^3), and when the tumors reached a predetermined size, ^211At-AAMT-OMe or ^211At-AAMT diluted with water for injection to 0.5 MBq/0.2 mL per mouse was administered via tail vein. Thirty days after administration, the mice were euthanized and tumor masses were isolated. After fat tissue and the like were trimmed off, the wet weights of the isolated tumor masses were measured to make a histogram.
# HEK293-hLAT1 cells = biological target: T1, HEK293-hLAT1 cells (Homo sapiens, UniProt Q01650); assay: Cellular uptake test (using HEK293); type: cell-based
# T1 construct: expressed in transfected cells; host or cells: HEK293
# Experimental: • Cells to be used: HEK293-Mock, HEK293-hLAT1, HEK293-hLAT2 (HEK293: Human Embryonic Kidney cells 293) • Culture medium to be used: E-MEM (containing 10% FBS, 1% P/S, 1% NEAA)
# Two days before a test day, a cell suspension was prepared in such a manner that the concentration of predetermined cells was 1 x 10^5 cells/mL. The cell suspension was seeded in a 24-well multiculture plate at a volume of 0.5 mL per well. On the day of the test, cultures were confirmed to be subconfluent (which refers to a state where 70-80% of the well is covered in density). […]
# ^211At-AAMT-OMe or ^211At-AAMT was added to the prepared cells at 10 µL/well. […] The cells were lysed by adding 0.1N NaOH to obtain a lysate, and the radioactivity of the lysate was measured using a γ counter. After the radioactivity measurement, the lysate was loaded into a 96-well plate at a volume of 10 µL per well, the protein amount was measured by the BCA method, and the number of cells was corrected based on the protein amount. Absorbance was measured by MultiScanFC (Thermo Fisher). The uptake level of ^211At-AAMT-OMe or ^211At-AAMT into the cells (number of radioactivity counts/protein amount) was calculated.
# [7] = tested on: CDDP-resistant A549 (A549 CDDP-r); assay: Cytotoxicity test on CDDP-resistant A549 (Test Example 8); details: cultivation for 48 hours
# Experimental: Two days before experiment, A549 and CDDP-resistant A549 (A549 CDDP-r) were each seeded in a 96-well plate at a concentration of 1 × 10^5 cells/mL. ^211At-AAMT-OMe or ^211At-AAMT adjusted to a predetermined concentration was added to A549 cells and CDDP-resistant A549 cells, respectively, and the cells were cultured (CO2 5%, 37°C). After the cultivation for 48 hours, Cell counting kit-8 (DOJINDO LABORATORIES) was added. After the addition, the cells were cultured at 37°C for 1 hour, and cell viability was measured using absorbance at 450 nm as an indicator.
# [8] = tested on: human pancreatic cancer cell line, PANC1; details: up to 21 days after administration, 1 MBq per mouse
# Experimental: Tumor sizes and body weights were measured over time after the administration. The experiment was terminated 21 days after administration. It should be noted that in Fig. 21 and Fig. 22, "OMe" is ^211At-AAMT-OMe and "OEt" is ^211At-AAMT-OEt.
# [9] = tested on: human pancreatic cancer cell line, PANC1; assay: Therapeutic test on mice subcutaneously transplanted with PANC1 (Test Example 3); type: in vivo
# Excerpt: Twenty-eight days after administration, the mice were euthanized and subjected to autopsy, and tumor masses were isolated after organs were examined for abnormalities.
# [10] = tested on: human pancreatic cancer cell line, PANC1; assay: Imaging of mice subcutaneously transplanted with PANC1 (Test Example 2); details: 2 hours after administration, 0.5 MBq per mouse via tail vein
# Excerpt: Immunodeficient mice (Balb/c-nu/nu, 5-week-old, male) were habituated for 1 week and then subcutaneously transplanted with a human pancreatic cancer cell line (PANC1, 1 × 10^7 cells/mouse). After the transplantation, the mice were observed over time until tumor reached a size large enough for imaging (about 1000 mm^3). […] Two hours after administration, the mice were anesthetized by isoflurane inhalation, and planar images were taken using a γ camera (E-cam, Siemens).
# [11] = 10 minutes after administration
# T1 sequence (Q01650 whole entry): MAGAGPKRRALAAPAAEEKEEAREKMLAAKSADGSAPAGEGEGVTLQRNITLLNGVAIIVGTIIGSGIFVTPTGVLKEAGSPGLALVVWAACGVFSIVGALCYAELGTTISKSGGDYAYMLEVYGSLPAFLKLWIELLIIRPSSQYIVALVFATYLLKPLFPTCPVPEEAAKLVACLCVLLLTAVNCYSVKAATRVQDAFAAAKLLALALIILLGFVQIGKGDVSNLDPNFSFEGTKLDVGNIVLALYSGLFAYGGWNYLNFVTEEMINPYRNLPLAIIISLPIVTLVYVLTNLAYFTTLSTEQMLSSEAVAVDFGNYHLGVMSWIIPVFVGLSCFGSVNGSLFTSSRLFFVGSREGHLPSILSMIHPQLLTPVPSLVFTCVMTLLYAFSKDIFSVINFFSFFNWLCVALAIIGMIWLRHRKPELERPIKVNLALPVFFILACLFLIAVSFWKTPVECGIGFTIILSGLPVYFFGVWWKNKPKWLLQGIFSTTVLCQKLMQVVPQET
# T1 sequence (P08195 102-630 partner): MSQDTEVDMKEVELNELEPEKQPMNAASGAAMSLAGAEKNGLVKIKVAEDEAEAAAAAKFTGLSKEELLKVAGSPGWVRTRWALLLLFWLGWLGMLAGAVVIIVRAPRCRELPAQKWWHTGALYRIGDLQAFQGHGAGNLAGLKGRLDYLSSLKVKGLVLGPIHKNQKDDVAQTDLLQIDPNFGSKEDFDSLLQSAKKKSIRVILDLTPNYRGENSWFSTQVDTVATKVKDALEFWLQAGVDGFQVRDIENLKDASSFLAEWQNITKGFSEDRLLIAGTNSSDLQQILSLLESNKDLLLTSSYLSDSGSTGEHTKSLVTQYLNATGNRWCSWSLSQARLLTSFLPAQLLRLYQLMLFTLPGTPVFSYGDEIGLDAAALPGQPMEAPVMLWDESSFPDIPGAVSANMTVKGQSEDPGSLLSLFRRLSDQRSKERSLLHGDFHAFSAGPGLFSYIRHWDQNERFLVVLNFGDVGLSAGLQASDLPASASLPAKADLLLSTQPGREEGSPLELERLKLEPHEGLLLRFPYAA
SMILES,"tumor accumulation [1, 11] [%ID/g]",tumor accumulation ([1]; 1 hour after administration) [%ID/g],decomposition (TLC) [2],uptake speed (PANC1),uptake level into the cells (number of radioactivity counts/protein amount) (PANC1),further results
"COc1cc(C[C@](C)(N)C(=O)O)ccc1[At] [^211At-AAMPhe-OMe, (S)-α-methyl-4-astato(^211At)-3-methoxyphenylalanine]",3.77,6.38,no decomposition,–,–,–
"CCCOc1ccc(C[C@](C)(N)C(=O)O)cc1[At] [^211At-AAMT-OPr, (S)-3-astato(^211At)-O-propyl-α-methyltyrosine]",5.91,9.45,no decomposition,comparable or superior,comparable or superior,–
"[NH2][Pt]([NH2])([Cl])[Cl] [CDDP, Cisplatin]",–,–,–,–,–,cell viability [3]: still alive
"Nc1ccn([C@@H]2O[C@H](CO)[C@@H](O)C2(F)F)c(=O)n1 [gemcitabine, Gemcitabine]",–,–,–,–,–,cell viability [4]: still alive
"COc1ccc(C[C@@](C)(N)C(=O)O)cc1[At] [(R)-^211At-AAMT-OMe, (R)-3-astato(^211At)-O-methyl-α-methyltyrosine]",–,–,no decomposition,–,–,–
"COc1ccc(C[C@](C)(N)C(=O)O)cc1[211At] [^211At-AAMT-OMe, (S)-3-astato(^211At)-O-methyl-α-methyltyrosine]",2.59,3.78,no decomposition,much superior,much superior,"anti-tumor effect (tumor weight) [5]: higher; tumor growth inhibiting effect (tumor size) [5]: higher; anti-tumor effect (tumor weight) [6]: higher; anti-tumor effect (tumor weight) (A549): comparable; uptake level into the cells (number of radioactivity counts/protein amount) (HEK293-hLAT1 cells; HEK293-hLAT1 cells (CTL), 30 minutes, comparable to 211At-AAMT): strongly taken up; uptake into the cells in the presence of inhibitor (HEK293-hLAT1 cells; HEK293-hLAT1 cells, in the presence of BCH and AMT): significantly inhibited; cytotoxicity (cell viability, Cell counting kit-8) [7]: more remarkable cytotoxicity; apparent toxicity induced by administration [8]: not observed; body weight [8]: gently increased; tumor size (wet weight of isolated tumor masses) ([9]; 28 days after administration, 1 MBq per mouse via tail vein, compared with the 211At-AAMT administration group): slightly smaller; mouse body weight ([9]; immediately after administration to 28th day, 1 MBq per mouse, not at a level regarded as a side effect): tends to slightly reduce; accumulation in the tumor (planar image, γ camera) [10]: accumulated in the tumor sites"
"CCOc1ccc(C[C@](C)(N)C(=O)O)cc1[At] [^211At-AAMT-OEt, (S)-3-astato(^211At)-O-ethyl-α-methyltyrosine]",4.21,3.59,no decomposition,comparable or superior,comparable or superior,apparent toxicity induced by administration [8]: not observed; body weight [8]: gently increased; tumor growth inhibiting effect (tumor size) ([8]; compared with the 211At-AAMT-OMe administration group): comparable
"C[C@](N)(Cc1ccc(O)c([At])c1)C(=O)O [^211At-AAMT, astato(^211At)-α-methyl-L-tyrosine, reference compound]",0.29,2.49,–,–,–,"cytotoxicity (cell viability, Cell counting kit-8) [7]: has cytotoxicity; accumulation in the tumor (planar image, γ camera) [10]: accumulated in the tumor sites"
